Assay results from patent US8546401B2, “5,6-disubstituted oxindole-derivatives and use thereof for treating vasopressin-dependent diseases” (AbbVie Deutschland GmbH & Co. KG, priority 2007, dated 2013).
pKi: −log10 of the molar value.

What was measured:
[1] = molecular target: T1, human vasopressin V1b receptor (Homo sapiens, UniProt P47901); assay: Vasopressin V1b receptor binding assay; details: CHO-K1 membranes, 3H-AVP displacement
T1 construct: expressed in transfected cells; host or cells: CHO-K1 (cell line hV1b_3H2_CHO), membrane preparation
T1 sequence (P47901 1-424): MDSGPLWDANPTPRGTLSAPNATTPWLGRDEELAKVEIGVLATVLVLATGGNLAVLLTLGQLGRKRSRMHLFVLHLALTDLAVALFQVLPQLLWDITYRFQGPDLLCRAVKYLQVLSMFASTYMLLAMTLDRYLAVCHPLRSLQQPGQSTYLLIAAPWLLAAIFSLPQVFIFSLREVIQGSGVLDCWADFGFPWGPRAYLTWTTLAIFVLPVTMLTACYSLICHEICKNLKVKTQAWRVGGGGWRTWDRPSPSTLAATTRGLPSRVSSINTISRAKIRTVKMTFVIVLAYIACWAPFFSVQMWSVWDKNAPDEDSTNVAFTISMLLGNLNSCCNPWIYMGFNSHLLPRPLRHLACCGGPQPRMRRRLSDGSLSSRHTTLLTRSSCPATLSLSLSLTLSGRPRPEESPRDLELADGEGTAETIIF
Description: 1. Vasopressin V1b Receptor Binding Assay:
The test substances were dissolved in a concentration of 10^−2 M in DMSO and further diluted to 5×10^−4 M to 5×10^−3 M. These serial DMSO predilutions were diluted 1:10 with assay buffer. The substance concentration was further diluted 1:5 in the assay mixture (2% DMSO in the mixture).
CHO-K1 cells with stably expressed human vasopressin V1b receptor (clone 3H2) were harvested and homogenized in 50 mM Tris-HCl and in the presence of protease inhibitors (Roche complete Mini #1836170) using a Polytron homogenizer at intermediate setting for 2×10 seconds, and subsequently centrifuged at 40 000×g for 1 h. The membrane pellet was again homogenized and centrifuged as described and subsequently taken up in 50 mM Tris-HCl, pH 7.4, homogenized and stored in aliquots frozen in liquid nitrogen at −190° C.
(§1) The binding assay was carried out by the method based on that of Tahara et al. (Tahara A et al., Brit. J. Pharmacol. 125, 1463-1470 (1998)).
(§2) The incubation buffer was: 50 mM Tris, 10 mM MgCl2, 0.1% BSA, pH 7.4.
In the assay mixture (250 μl), membranes (50 μg/ml protein in incubation buffer) from CHO-K1 cells with stably expressed human V1b receptors (cell line hV1b—3H2_CHO) were incubated with 1.5 nM ^3H-AVP (8-Arg-vasopressin, PerkinElmer #18479) in incubation buffer (50 mM Tris, 10 mM MgCl2, 0.1% BSA, pH 7.4) (total binding) or additionally with increasing concentrations of test substance (displacement experiment). The nonspecific binding was determined with […] (Bachem #H1780). All determinations were carried out as triplicate determinations. After incubation (60 minutes at room temperature), the free radioligand was filtered off by vacuum filtration (Skatron cell harvester 7000) through Wathman GF/B glass fiber filter mats, and the filters were transferred into scintillation vials. The liquid scintillation measurement took place in a model 2000 or 2200CA Tricarb instrument (Packard). Conversion of the measured cpm into dpm was carried out with the aid of a standard quench series.
The binding parameters were calculated by nonlinear regression in SAS. The algorithms of the program operate in analogy to the LIGAND analysis program (Munson P J and Rodbard D, Analytical Biochem. 107, 220-239 (1980)). The Kd of ^3H-AVP for the recombinant human V1b receptors is 0.4 nM and was used to determine the Ki.

human oxytocin receptors = molecular target: T2, human oxytocin receptors (Homo sapiens, UniProt P30559); assay: Oxytocin receptor binding assay; details: selectivity quotient
T2 construct: expressed in transfected cells; host or cells: HEK-293, transient expression; lysed and homogenized cells
T2 sequence (P30559 1-389): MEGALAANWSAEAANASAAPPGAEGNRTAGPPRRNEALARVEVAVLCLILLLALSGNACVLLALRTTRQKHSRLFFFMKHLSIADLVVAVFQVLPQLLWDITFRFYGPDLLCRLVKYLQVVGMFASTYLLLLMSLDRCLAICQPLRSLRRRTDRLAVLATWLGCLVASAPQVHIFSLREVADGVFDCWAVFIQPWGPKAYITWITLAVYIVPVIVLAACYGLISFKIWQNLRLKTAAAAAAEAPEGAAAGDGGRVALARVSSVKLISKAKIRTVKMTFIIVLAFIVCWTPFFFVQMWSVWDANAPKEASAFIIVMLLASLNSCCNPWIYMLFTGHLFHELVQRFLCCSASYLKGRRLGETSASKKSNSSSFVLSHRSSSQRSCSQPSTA
Description: 4. Oxytocin Receptor Binding Assay
The substances were dissolved in a concentration of 10^−2 M in DMSO and diluted with incubation buffer (50 mM Tris, 10 mM MgCl2, 0.1% BSA, pH 7.4).
Confluent HEK-293 cells with transiently expressing recombinant human oxytocin receptors were centrifuged at 750×g at room temperature for 5 minutes. The residue was taken up in ice-cold lysis buffer (50 mM Tris-HCl, 10% glycerol, pH 7.4 and Roche complete protease inhibitor) and subjected to an osmotic shock at 4° C. for 20 minutes. The lyzed cells were then centrifuged at 750×g at 4° C. for 20 minutes, the residue was taken up in incubation buffer, and aliquots of 10^7 cells/ml were prepared. The aliquots were frozen at −80° C. until used.
On the day of the experiment, the cells were thawed, diluted with incubation buffer and homogenized using a Multipette Combitip (Eppendorf, Hamburg). The reaction mixture of 0.250 ml was composed of 2 to 5×10^4 recombinant cells, 3-4 nM ^3H-oxytocin (PerkinElmer, NET 858) in the presence of test substance (inhibition plot) or only incubation buffer (total binding). The nonspecific binding was determined with 10^−6 M oxytocin (Bachem AG, H2510). Triplicate determinations were set up. Bound and free radioligand were separated by filtration under vacuum with Whatman GF/B glass fiber filters with the aid of a Skatron cell harvester 7000. The bound radioactivity was determined by liquid scintillation measurement in a Tricarb Beta counter, model 2000 or 2200CA (Packard).
The binding parameters were calculated by nonlinear regression analysis (SAS) in analogy to the LIGAND program of Munson and Rodbard (Analytical Biochem 1980; 107: 220-239). The Kd of ^3H-oxytocin for the recombinant hOT receptors is 7.6 nM and was used to determine the Ki.

[2] = molecular target: T3, human vasopressin V1a receptor (Homo sapiens, UniProt P37288); assay: Vasopressin V1a receptor binding assay; details: selectivity quotient, human receptors
T3 construct: expressed in transfected cells; host or cells: CHO-K1 (cell line hV1a_5_CHO), membrane preparation
T3 sequence (P37288 whole entry): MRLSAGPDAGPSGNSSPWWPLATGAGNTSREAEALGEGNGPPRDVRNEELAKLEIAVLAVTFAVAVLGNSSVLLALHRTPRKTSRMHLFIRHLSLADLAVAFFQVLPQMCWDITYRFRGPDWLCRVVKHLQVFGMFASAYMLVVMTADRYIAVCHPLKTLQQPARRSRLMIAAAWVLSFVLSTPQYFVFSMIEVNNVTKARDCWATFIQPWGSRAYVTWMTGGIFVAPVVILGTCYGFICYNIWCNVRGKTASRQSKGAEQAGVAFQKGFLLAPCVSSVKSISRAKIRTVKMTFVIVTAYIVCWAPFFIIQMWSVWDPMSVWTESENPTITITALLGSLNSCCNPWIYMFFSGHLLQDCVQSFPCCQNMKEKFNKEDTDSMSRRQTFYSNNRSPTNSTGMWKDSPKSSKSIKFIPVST
Description: 2. Vasopressin V1a Receptor Binding Assay:
The test substances were dissolved in a concentration of 10^−2 M in DMSO. Further dilution of these DMSO solutions took place in incubation buffer (50 mM Tris, 10 mM MgCl2, 0.1% BSA, pH 7.4).
CHO-K1 cells with stably expressed human vasopressin V1a receptor (clone 5) were harvested and homogenized in 50 mM Tris-HCl and in the presence of protease inhibitors (Roche complete Mini #1836170) using a Polytron homogenizer at intermediate setting for 2×10 seconds, and subsequently centrifuged at 40 000×g for 1 h. The membrane pellet was again homogenized and centrifuged as described and subsequently taken up in 50 mM Tris-HCl, pH 7.4, homogenized and stored in aliquots frozen in liquid nitrogen at −190° C.
as §1, §2
In the assay mixture (250 μl), membranes (20 μg/ml protein in incubation buffer) from CHO-K1 cells with stably expressed human V1a receptors (cell line hV1a—5_CHO) were incubated with 0.04 nM ^125I-AVP (8-Arg-vasopressin, NEX 128) in incubation buffer (50 mM Tris, 10 mM MgCl2, 0.1% BSA, pH 7.4) (total binding) or additionally with increasing concentrations of test substance (displacement experiment). The nonspecific binding was determined with 1 μM AVP (Bachem #H1780). Triplicate determinations were carried out.
After incubation (60 minutes at room temperature), the free radioligand was filtered off by vacuum filtration (Skatron cell harvester 7000) through Wathman GF/B glass fiber filter mats, and the filters were transferred into scintillation vials.
The liquid scintillation measurement took place in a model 2000 or 2200CA Tricarb instrument (Packard). Conversion of the measured cpm into dpm was carried out with the aid of a standard quench series.
The binding parameters were calculated by nonlinear regression in SAS. The algorithms of the program operate in analogy to the LIGAND analysis program (Munson P J and Rodbard D, Analytical Biochem. 107, 220-239 (1980)). The Kd of ^125I-AVP for the recombinant hV1a receptors was determined in saturation experiments. A Kd of 1.33 nM was used to determine the Ki.

Row | Structure (SMILES) | pKi [1] | Ki(h − OT)/Ki(h − V1b)* (human oxytocin receptors) | Ki(h − V1a)/Ki(h − V1b)* [2]
1 | CCOc1ncccc1C1(NC(=O)N2CCC(N3CCN(CC)CC3)CC2)C(=O)N(S(=O)(=O)c2ccc(OC)cc2)c2cc(F)c(C#N)cc21 (stereo not drawn) [Example 8, 4-(4-Ethylpiperazin-1-yl)piperidine-1-[5-cyano-3-(2-ethoxypyridin-3-yl)-6-fluoro-1-(4-methoxyphenylsulfonyl)-2-oxo-2,3-dihydro-1H-indol-3-yl]carboxamide] | 8.00 to 9.00 | +++ (>75) | ++ (25-75)
2 | CCOc1ccccc1C1(NC(=O)N2CCN(C3CCN(C)CC3)CC2)C(=O)N(S(=O)(=O)c2ccc(OC)cc2)c2cc(F)c(C#N)cc21 (stereo not drawn) [Example 10, 4-(1-Methylpiperidin-4-yl)piperazine-1-[5-cyano-3-(2-ethoxyphenyl)-6-fluoro-1-(4-methoxyphenylsulfonyl)-2-oxo-2,3-dihydro-1H-indol-3-yl]carboxamide] | 8.00 to 9.00 | + (10-<25) | ++ (25-75)
3 | CCOc1ccccc1C1(NC(=O)N2CCN(C3CCN(CC)CC3)CC2)C(=O)N(S(=O)(=O)c2ccc(OC)cc2OC)c2cc(F)c(C#N)cc21 (stereo not drawn) [Example 11, 4-(1-Ethylpiperidin-4-yl)piperazine-1-[5-cyano-1-(2,4-dimethoxyphenylsulfonyl)-3-(2-ethoxyphenyl)-6-fluoro-2-oxo-2,3-dihydro-1H-indol-3-yl]carboxamide] | > 9.00 | +++ (>75) | +++ (>75)
4 | CCOc1ccccc1C1(NC(=O)N2CCN(C3CCN(CC)CC3)CC2)C(=O)N(S(=O)(=O)c2ccc(OC)cc2)c2cc(F)c(C#N)cc21 (stereo not drawn) [Example 12, 4-(1-Ethylpiperidin-4-yl)piperazine-1-[5-cyano-3-(2-ethoxyphenyl)-6-fluoro-1-(4-methoxyphenylsulfonyl)-2-oxo-2,3-dihydro-1H-indol-3-yl]carboxamide] | 8.00 to 9.00 | +++ (>75) | +++ (>75)
5 | CCOc1ccccc1C1(NC(=O)N2CCN(C3CCN(CC)CC3)CC2)C(=O)N(S(=O)(=O)c2ccccc2)c2cc(F)c(C#N)cc21 (stereo not drawn) [Example 13, 4-(1-Ethylpiperidin-4-yl)piperazine-1-[1-phenylsulfonyl-5-cyano-3-(2-ethoxyphenyl)-6-fluoro-2-oxo-2,3-dihydro-1H-indol-3-yl]carboxamide] | 8.00 to 9.00 | +++ (>75) | ++ (25-75)
6 | CCOc1ccccc1C1(NC(=O)N2CCC(N3CCN(C)CC3)CC2)C(=O)N(S(=O)(=O)c2ccc(OC)cc2OC)c2cc(F)c(C#N)cc21 (stereo not drawn) [Example 14, 4-(4-Methylpiperazin-1-yl)piperidine-1-[5-cyano-1-(2,4-dimethoxyphenylsulfonyl)-3-(2-ethoxyphenyl)-6-fluoro-2-oxo-2,3-dihydro-1H-indol-3-yl]carboxamide] | 8.00 to 9.00 | +++ (>75) | + (10-<25)
7 | CCOc1ccccc1C1(NC(=O)N2CCC(N3CCN(C)CC3)CC2)C(=O)N(S(=O)(=O)c2ccc(OC)cc2)c2cc(F)c(C#N)cc21 (stereo not drawn) [Example 15, 4-(4-Methylpiperazin-1-yl)piperidine-1-[5-cyano-3-(2-ethoxyphenyl)-6-fluoro-1-(4-methoxyphenylsulfonyl)-2-oxo-2,3-dihydro-1H-indol-3-yl]carboxamide] | 8.00 to 9.00 | +++ (>75) | + (10-<25)
8 | CCOc1ccccc1C1(NC(=O)N2CCC(N3CCN(CC)CC3)CC2)C(=O)N(S(=O)(=O)c2ccc(OC)cc2OC)c2cc(F)c(C#N)cc21 (stereo not drawn) [Example 16, 4-(4-Ethylpiperazin-1-yl)piperidine-1-[5-cyano-1-(2,4-dimethoxyphenylsulfonyl)-3-(2-ethoxyphenyl)-6-fluoro-2-oxo-2,3-dihydro-1H-indol-3-yl]carboxamide] | > 9.00 | +++ (>75) | + (10-<25)
